We go through one molecule from patent US20210370019A1, “Method of Treatment Using Negative Pressure Renal Therapy and Medicament(s)” (Strataca Systems Limited, priority 2020, published 2021).

Where two headings read alike, the source gives them in different places.

The conditions of assay [1]: cited from earlier work.
Assay [2] concerns animal model of hypervolemic tamponade.
In assay [3] the test system is congestion heart failure (HF) model. The note with it: for diuresis / natriuresis: furosemide diuresis, No-HF; for filtration fraction: furosemide infusion.

With `NS(=O)(=O)c1cc(C(=O)O)c(NCc2ccco2)cc1Cl` [furosemide], in assay [1] (furosemide administration, as reported), the “increase in renal interstitial pressure” value is reported as roughly 7 mmHg. In addition, in assay [1] (known effect of furosemide), the “effect on GFR” value was “can reduce GFR”. For the same molecule, in assay [2] (tamponade (CVP approx. 20 mm Hg), continued presence of furosemide, compared to mild congestion state of saline loading), the “decrease in urine output” value is reported as −35%. For the same molecule, the “increase in urine output” value in assay [2] (tamponade, negative pressure (−30 mm Hg) in combination with furosemide, beyond the use of diuretics alone) is given as “+67%”. In addition, the results for the diuresis in assay [3] (control kidney (no rNPT)) and in assay [3] (rNPT kidney (−30 mmHg)) were 11.8 ± 3.7 mL/min and 19.7 ± 4.5 mL/min, respectively. For the same molecule, the natriuresis in assay [3] (control kidney (no rNPT)) worked out at 1.5 ± 0.5 mmol/min; in assay [3] (rNPT kidney (−30 mmHg)) it was 2.4 ± 0.6 mmol/min. The filtration fraction in assay [3] (during rNPT (similar effect between HF and no HF periods)) is 55.6±24.8%; in assay [3] (without rNPT), 49.0±20.8%.
